Where two headings read alike, the source gives them in different places.
Columns and labels:
[1] = tested on: human bone marrow progenitor cells; assay: Bone marrow progenitor growth; assay type: cell-based; conditions: CFU-GM, 240 h
PTK5 = PTK5 (Homo sapiens, UniProt P42685); assay: IC50 Profiler Express kinase assay; assay type: biochemical
TAO2 = biological target: T1, TAO2 (Homo sapiens, UniProt Q9UL54); assay: IC50 Profiler Express kinase assay; assay type: biochemical
T1 sequence (Q9UL54 1-1235): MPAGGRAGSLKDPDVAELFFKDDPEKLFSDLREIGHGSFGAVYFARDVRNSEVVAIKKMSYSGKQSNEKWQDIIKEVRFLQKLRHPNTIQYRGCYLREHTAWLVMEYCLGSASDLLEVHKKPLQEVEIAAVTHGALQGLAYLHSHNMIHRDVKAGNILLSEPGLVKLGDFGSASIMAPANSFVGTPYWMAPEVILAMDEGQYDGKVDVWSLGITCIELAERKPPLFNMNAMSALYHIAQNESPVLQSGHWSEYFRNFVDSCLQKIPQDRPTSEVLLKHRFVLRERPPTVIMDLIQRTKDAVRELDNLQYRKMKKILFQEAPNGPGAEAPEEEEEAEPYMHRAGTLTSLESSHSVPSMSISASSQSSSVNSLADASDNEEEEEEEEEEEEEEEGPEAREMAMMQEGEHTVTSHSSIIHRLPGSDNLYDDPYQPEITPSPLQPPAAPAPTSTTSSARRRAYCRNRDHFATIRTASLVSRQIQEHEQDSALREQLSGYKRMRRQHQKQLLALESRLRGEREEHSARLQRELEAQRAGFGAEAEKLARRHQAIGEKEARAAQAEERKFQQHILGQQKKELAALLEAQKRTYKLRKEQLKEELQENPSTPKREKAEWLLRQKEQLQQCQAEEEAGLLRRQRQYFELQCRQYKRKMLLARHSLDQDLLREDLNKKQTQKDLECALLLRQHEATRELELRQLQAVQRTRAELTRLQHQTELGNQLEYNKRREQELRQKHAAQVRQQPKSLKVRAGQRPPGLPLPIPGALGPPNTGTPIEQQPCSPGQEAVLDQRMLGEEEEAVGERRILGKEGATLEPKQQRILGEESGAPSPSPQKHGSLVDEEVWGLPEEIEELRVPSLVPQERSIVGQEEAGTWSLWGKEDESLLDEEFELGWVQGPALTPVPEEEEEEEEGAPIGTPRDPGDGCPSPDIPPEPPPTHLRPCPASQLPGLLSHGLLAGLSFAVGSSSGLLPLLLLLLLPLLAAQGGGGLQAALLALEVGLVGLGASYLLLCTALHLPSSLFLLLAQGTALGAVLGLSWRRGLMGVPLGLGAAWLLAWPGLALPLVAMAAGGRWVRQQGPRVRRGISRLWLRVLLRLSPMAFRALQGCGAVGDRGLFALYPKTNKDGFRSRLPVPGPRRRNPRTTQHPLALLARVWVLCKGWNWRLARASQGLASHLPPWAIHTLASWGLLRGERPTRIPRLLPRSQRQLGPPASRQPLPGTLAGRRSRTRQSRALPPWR

Chain of PTK5 (P42685 whole entry): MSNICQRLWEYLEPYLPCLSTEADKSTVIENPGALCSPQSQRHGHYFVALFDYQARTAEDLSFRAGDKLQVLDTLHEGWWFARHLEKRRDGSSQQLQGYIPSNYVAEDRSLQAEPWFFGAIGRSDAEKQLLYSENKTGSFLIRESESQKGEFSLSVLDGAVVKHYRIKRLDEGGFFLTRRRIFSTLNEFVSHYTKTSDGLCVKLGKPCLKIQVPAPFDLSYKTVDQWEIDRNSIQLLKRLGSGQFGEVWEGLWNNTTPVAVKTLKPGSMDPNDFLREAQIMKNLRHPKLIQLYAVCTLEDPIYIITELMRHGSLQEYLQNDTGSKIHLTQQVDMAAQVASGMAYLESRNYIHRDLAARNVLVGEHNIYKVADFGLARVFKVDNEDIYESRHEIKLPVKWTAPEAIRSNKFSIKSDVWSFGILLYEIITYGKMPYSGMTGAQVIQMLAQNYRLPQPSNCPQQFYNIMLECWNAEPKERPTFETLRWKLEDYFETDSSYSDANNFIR

Structure (SMILES): CCN(CC)CCNC(=O)c1c(C)[nH]c(/C=C2\C(=O)Nc3ccc(F)cc32)c1C [Sunitinib]
- IC50 ([1]; read-out: IC50, CFU-GM formation induced by GM-CSF): 32.7 nM

Structure (SMILES): Cc1ccc(Nc2nccc(N(C)c3ccc4c(C)n(C)nc4c3)n2)cc1S(N)(=O)=O [Pazopanib]
- IC50 (PTK5): 97 nM
- IC50 (TAO2): 382 nM
- IC50 ([1]; read-out: IC50, GM-CSF–driven CFU-GM formation): 1000 nM

— PMC2768111 (British Journal of Cancer, 2009)
